Measurements reported in paper PMC9652379, “Safety evaluations of a synthetic antimicrobial peptide administered intravenously in rats and dogs” (Scientific Reports, 2022).
Positions of bridges follow the written chain, without caps; N, C: chain ends. Non-standard residues stand in square brackets, D forms with d. Residues, ends and D or L forms follow the SMILES beside them. Chains are numbered I, II in the order given. βAla = NCCC(=O)O

Test system: Sprague Dawley rats
Assay: Dose range finding in rats: clinical signs, body weight, survival
Type: in vivo, rat
Method: The purpose of this study was to determine the DRF of SET-M33 peptide when administered by intravenous bolus to Sprague Dawley rats. In order to identify a starting point for DRF, in Phase I of this study the peptide was administered once daily for 3 days at a constant dose of 20 mg/kg/day to six animals (three males and three females). […] No clinical signs were recorded in any animal 20–60 min after administration. Body weight of all animals in Phase I remained constant or decreased slightly during treatment.
Phase II, where 10 animals/group (five males and five females) were used, included a control group and two dose groups (10 mg/kg/day and 20 mg/kg/day), that were injected once daily for seven days. […] At 20 mg/kg/day, additional clinical signs, including decreased activity, irregular and/or slow breathing, piloerection, partially closed eyelids, abnormal uncoordinated gait, reduced body tone and hunched posture, were observed during the 7 days. The mean body weight of males treated with 10 and 20 mg/kg/day declined slightly (6% and 5% less than control group, respectively).
Sprague Dawley rats were used for the toxicity studies. The animals were supplied by Envigo RMS S.L. All animals were 6–8 weeks old at the start of treatment and were allocated randomly to the treatment groups. […]
A viability/mortality check was recorded at least twice daily. […]

In the case of `CC[C@H](C)[C@H](NC(=O)[C@H](CCCCN)NC(=O)[C@@H](N)CCCCN)C(=O)N[C@@H](CCCNC(=N)N)C(=O)N[C@H](C(=O)N[C@@H](CCCNC(=N)N)C(=O)N[C@@H](CC(C)C)C(=O)N[C@@H](CO)C(=O)N[C@@H](C)C(=O)NCCCC[C@H](NC(=O)[C@H](C)NC(=O)[C@H](CO)NC(=O)[C@H](CC(C)C)NC(=O)[C@H](CCCNC(=N)N)NC(=O)[C@@H](NC(=O)[C@H](CCCNC(=N)N)NC(=O)[C@@H](NC(=O)[C@H](CCCCN)NC(=O)[C@@H](N)CCCCN)[C@@H](C)CC)C(C)C)C(=O)NCCCC[C@H](NC(=O)[C@H](CCCCNC(=O)[C@H](C)NC(=O)[C@H](CO)NC(=O)[C@H](CC(C)C)NC(=O)[C@H](CCCNC(=N)N)NC(=O)[C@@H](NC(=O)[C@H](CCCNC(=N)N)NC(=O)[C@@H](NC(=O)[C@H](CCCCN)NC(=O)[C@@H](N)CCCCN)[C@@H](C)CC)C(C)C)NC(=O)[C@H](C)NC(=O)[C@H](CO)NC(=O)[C@H](CC(C)C)NC(=O)[C@H](CCCNC(=N)N)NC(=O)[C@@H](NC(=O)[C@H](CCCNC(=N)N)NC(=O)[C@@H](NC(=O)[C@H](CCCCN)NC(=O)[C@@H](N)CCCCN)[C@@H](C)CC)C(C)C)C(=O)NCCC(=O)O)C(C)C` [SET-M33] (I: H-KKIRVRLSAKK[βAla]-OH / II: H-KKIRVRLSAK / III: H-KKIRVRLSA / IV: H-KKIRVRLSA; amide I:10-IV:C, I:11-II:C, II:10-III:C (inferred); N-terminus and C-terminus assumed), the female body weight (female rats, 10 and 20 mg/kg/day iv, 7 days (Phase II)) is reported as “unaffected by treatment” and the survival (rats, Phase I 20 mg/kg/day 3 days and Phase II 10 and 20 mg/kg/day 7 days, iv bolus) is reported as “All animals survived both phases”.
